Some results are limits rather than exact numbers.

Consider 1 molecule from patent publication US20220348565A1, “PHARMACEUTICAL COMPOUNDS” (SENTINEL ONCOLOGY LIMITED, priority 2019, published 2022).

Data set [1] deals with T1, PLK1 catalytic domain (Homo sapiens, UniProt P53350).
T1 construct: purchased DiscoverX; host or cells: T7 phage in E. coli (BL21-derived) or HEK-293
Description: DiscoverX KinomeScreen competition binding assay, PLK1. The following applies: read-out: % Ctrl @ 3 μM. On the procedure: (§1) Atropisomer A-2 has been tested for off-target activity against a panel of ninety-seven kinases distributed across the kinome at a concentration of 3 μM using the DiscoverX KinomeScreen assay. The DiscoverX KinomeScreen assay is a site-directed competition binding assay which measures the binding affinity of a compound to a kinase, by use of a solid supported control compound which can bind or capture the kinases in solution. In the absence of a kinase-inhibitor test compound, all of the kinase will bind to the solid support. If a kinase-inhibitor test compound is added to the assay mix, the amount of kinase binding to the solid support will be reduced, the extent of reduction being dependent on the potency of the test compound as a kinase inhibitor. […] For most assays, kinase-tagged T7 phage strains were grown in parallel in 24-well blocks in an E. coli host derived from the BL21 strain. […] The kinase concentration in the eluates was measured by qPCR. […] The strength of binding of the test molecule to the kinase can be expressed as the percent control (% Ctrl) The compound(s) were screened at 3000 nM concentration, and results for primary screen binding interactions are reported as ‘% Ctrl’, where lower numbers indicate stronger hits in the matrix on the following page(s). […]

The target in data set [2] is T2, PLK4 catalytic domain (Homo sapiens, UniProt O00444).
T2 construct: purchased DiscoverX; host or cells: T7 phage in E. coli (BL21-derived) or HEK-293
Description: DiscoverX KinomeScreen competition binding assay, PLK4. The following applies: read-out: % Ctrl @ 3 μM. On the procedure:
as §1

A short description of data set [3]: Gravimetric solubility in water. The class given is physicochemical. The following applies: thermodynamic from solid; gravimetric, water. How it is done:
The solubility in water of the salts was measured using a gravimetric solubility protocol.
1 ml of water was charged into crystallisation tubes. The solid was weighed into a tared glass vial, added in portions to the solutions and the vial weighed after each addition until a hazy solution was observed. The amount in mg was then calculated to give the solubility in mg/ml.
The solubility in water of the salts was measured using a gravimetric solubility protocol. Thus, 1 ml of water was charged into crystallisation tubes. The solid was weighed into a tared glass vial, added in portions to the solutions and the vial weighed after each addition until a hazy solution was observed. The amount in mg was then calculated to give the solubility in mg/mL.

For data set [4], the target named is T3, panel of ninety-seven kinases (Homo sapiens, UniProt P06213).
T3 construct: purchased DiscoverX; host or cells: T7 phage in E. coli (BL21-derived) for most kinases; HEK-293 for the rest
Nature of the data set: DiscoverX KinomeScreen kinase selectivity competition binding assay. The following applies: INSR; read-out: % Ctrl @ 3 μM. How it is done:
(§2) Atropisomer A-2 has been tested for off-target activity against a panel of ninety-seven kinases distributed across the kinome at a concentration of 3 μM using the DiscoverX KinomeScreen assay. The DiscoverX KinomeScreen assay is a site-directed competition binding assay which measures the binding affinity of a compound to a kinase, by use of a solid supported control compound which can bind or capture the kinases in solution. In the absence of a kinase-inhibitor test compound, all of the kinase will bind to the solid support. If a kinase-inhibitor test compound is added to the assay mix, the amount of kinase binding to the solid support will be reduced, the extent of reduction being dependent on the potency of the test compound as a kinase inhibitor. […] For most assays, kinase-tagged T7 phage strains were grown in parallel in 24-well blocks in an E. coli host derived from the BL21 strain. E. coli were grown to log-phase and infected with T7 phage from a frozen stock (multiplicity of infection=0.4) and incubated with shaking at 32° C. until lysis (90-150 minutes). The lysates were centrifuged (6,000×g) and filtered (0.2 μm) to remove cell debris. The remaining kinases were produced in HEK-293 cells and subsequently tagged with DNA for qPCR detection. Streptavidin-coated magnetic beads were treated with biotinylated small molecule ligands for 30 minutes at room temperature to generate affinity resins for kinase assays. The liganded beads were blocked with excess biotin and washed with blocking buffer (SeaBlock (Pierce), 1% BSA, 0.05% Tween 20, 1 mM DTT) to remove unbound ligand and to reduce non-specific phage binding. […] Test compounds were prepared as 40× stocks in 100% DMSO and directly diluted into the assay. All reactions were performed in polypropylene 384-well plates in a final volume of 0.02 ml. […] The beads were then re-suspended in elution buffer (1×PBS, 0.05% Tween 20, 0.5 μM non-biotinylated affinity ligand) and incubated at room temperature with shaking for 30 minutes. The kinase concentration in the eluates was measured by qPCR. Compounds that bind the kinase active site and directly (sterically) or indirectly (allosterically) prevent kinase binding to the immobilized ligand, will reduce the amount of kinase captured on the solid support. […] The strength of binding of the test molecule to the kinase can be expressed as the percent control (% Ctrl) The compound(s) were screened at 3000 nM concentration, and results for primary screen binding interactions are reported as ‘% Ctrl’, where lower numbers indicate stronger hits in the matrix on the following page(s). [formula] • negative control=DMSO (100% Ctrl) • positive control=control compound (0% Ctrl)

For data set [5], the target named is T4, panel of ninety-seven kinases (Homo sapiens, UniProt P36896).
T4 construct: purchased DiscoverX; host or cells: T7 phage in E. coli (BL21-derived) for most kinases; HEK-293 for the rest
The description is as above. The following applies: ACVR1B; read-out: % Ctrl @ 3 μM. On the procedure: as §2

Data set [6] addresses T5, panel of ninety-seven kinases (Homo sapiens, UniProt Q02750).
T5 construct: purchased DiscoverX; host or cells: T7 phage in E. coli (BL21-derived) for most kinases; HEK-293 for the rest
The description is as above. The following applies: MAP2K1; read-out: % Ctrl @ 3 μM. How it is done: as §2

Data set [7] deals with T6, panel of ninety-seven kinases (Homo sapiens, UniProt O60674).
T6 construct: purchased DiscoverX; host or cells: T7 phage in E. coli (BL21-derived) for most kinases; HEK-293 for the rest
The data set is described as above. The following applies: JAK2; read-out: % Ctrl @ 3 μM. How it is done:
as §2

In data set [8] the target is T7, panel of ninety-seven kinases (Homo sapiens, UniProt P29317).
T7 construct: purchased DiscoverX; host or cells: T7 phage in E. coli (BL21-derived) for most kinases; HEK-293 for the rest
The data set is described as above. The following applies: EPHA2; read-out: % Ctrl @ 3 μM. How it is done: as §2

Data set [9] has as its target T8, panel of ninety-seven kinases (Homo sapiens, UniProt Q86UX6).
T8 construct: purchased DiscoverX; host or cells: T7 phage in E. coli (BL21-derived) for most kinases; HEK-293 for the rest
The data set is described as above. The following applies: STK32C; read-out: % Ctrl @ 3 μM. How it is done: as §2

The target in data set [10] is T9, panel of ninety-seven kinases (Homo sapiens, UniProt P48730).
T9 construct: purchased DiscoverX; host or cells: T7 phage in E. coli (BL21-derived) for most kinases; HEK-293 for the rest
The description is as above. The following applies: CSNK1D; read-out: % Ctrl @ 3 μM. How it is done:
as §2

Data set [11] addresses T10, panel of ninety-seven kinases (Homo sapiens, UniProt Q9BXA7).
T10 construct: purchased DiscoverX; host or cells: T7 phage in E. coli (BL21-derived) for most kinases; HEK-293 for the rest
The description is as above. The following applies: TSSK1B; read-out: % Ctrl @ 3 μM. On the procedure: as §2

Data set [12] deals with T11, panel of ninety-seven kinases (Homo sapiens, UniProt Q9BVS4).
T11 construct: purchased DiscoverX; host or cells: T7 phage in E. coli (BL21-derived) for most kinases; HEK-293 for the rest
The description is as above. The following applies: RIOK2; read-out: % Ctrl @ 3 μM. On the procedure:
as §2

Data set [13] has as its target T12, panel of ninety-seven kinases (Homo sapiens, UniProt Q9H093).
T12 construct: purchased DiscoverX; host or cells: T7 phage in E. coli (BL21-derived) for most kinases; HEK-293 for the rest
The description is as above. The following applies: NUAK2; read-out: % Ctrl @ 3 μM. How it is done: as §2

In data set [14] the target is T13, panel of ninety-seven kinases (Homo sapiens, UniProt Q9UPE1).
T13 construct: purchased DiscoverX; host or cells: T7 phage in E. coli (BL21-derived) for most kinases; HEK-293 for the rest
The description is as above. The following applies: SRPK3; read-out: % Ctrl @ 3 μM. How it is done:
as §2

Data set [15] has as its target T14, panel of ninety-seven kinases (Homo sapiens, UniProt P24941).
T14 construct: purchased DiscoverX; host or cells: T7 phage in E. coli (BL21-derived) for most kinases; HEK-293 for the rest
The description is as above. The following applies: CDK2; read-out: % Ctrl @ 3 μM. On the procedure:
as §2

Data set [16] concerns the target T15, panel of ninety-seven kinases (Homo sapiens, UniProt P49137).
T15 construct: purchased DiscoverX; host or cells: T7 phage in E. coli (BL21-derived) for most kinases; HEK-293 for the rest
The data set is described as above. The following applies: MAPKAPK2; read-out: % Ctrl @ 3 μM. On the procedure:
as §2

The target in data set [17] is T16, panel of ninety-seven kinases (Homo sapiens, UniProt P35968).
T16 construct: purchased DiscoverX; host or cells: T7 phage in E. coli (BL21-derived) for most kinases; HEK-293 for the rest
The description is as above. The following applies: KDR; read-out: % Ctrl @ 3 μM. On the procedure:
as §2

Data set [18] concerns the target T17, panel of ninety-seven kinases (Homo sapiens, UniProt Q15831).
T17 construct: purchased DiscoverX; host or cells: T7 phage in E. coli (BL21-derived) for most kinases; HEK-293 for the rest
The description is as above. The following applies: STK11; read-out: % Ctrl @ 3 μM. How it is done: as §2

The subject of data set [19] is panel of ninety-seven kinases. The description is as above. On the procedure: as §2

T13 sequence (Q9UPE1 whole entry): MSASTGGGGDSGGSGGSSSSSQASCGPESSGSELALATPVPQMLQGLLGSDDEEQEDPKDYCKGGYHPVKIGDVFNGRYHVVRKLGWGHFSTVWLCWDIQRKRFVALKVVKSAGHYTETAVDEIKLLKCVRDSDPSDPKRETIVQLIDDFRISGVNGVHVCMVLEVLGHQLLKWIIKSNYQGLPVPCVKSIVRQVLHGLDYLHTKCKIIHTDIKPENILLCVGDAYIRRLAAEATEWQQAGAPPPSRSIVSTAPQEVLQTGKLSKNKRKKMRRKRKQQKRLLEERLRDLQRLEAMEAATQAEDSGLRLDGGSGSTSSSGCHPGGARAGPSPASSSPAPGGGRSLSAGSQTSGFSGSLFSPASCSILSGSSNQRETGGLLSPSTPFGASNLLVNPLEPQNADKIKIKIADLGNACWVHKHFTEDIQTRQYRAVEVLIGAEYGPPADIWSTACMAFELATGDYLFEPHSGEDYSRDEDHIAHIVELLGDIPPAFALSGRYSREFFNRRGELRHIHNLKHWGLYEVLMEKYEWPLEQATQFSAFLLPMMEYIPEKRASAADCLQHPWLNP
T2 sequence (O00444 12-265 limits assumed): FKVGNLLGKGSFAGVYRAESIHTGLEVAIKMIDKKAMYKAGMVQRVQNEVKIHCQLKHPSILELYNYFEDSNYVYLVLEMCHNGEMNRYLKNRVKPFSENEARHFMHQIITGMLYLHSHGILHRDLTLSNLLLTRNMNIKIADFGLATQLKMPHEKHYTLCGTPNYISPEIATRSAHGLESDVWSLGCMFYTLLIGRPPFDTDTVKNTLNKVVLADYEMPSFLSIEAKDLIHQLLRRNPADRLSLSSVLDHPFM
T11 sequence (Q9BVS4 whole entry): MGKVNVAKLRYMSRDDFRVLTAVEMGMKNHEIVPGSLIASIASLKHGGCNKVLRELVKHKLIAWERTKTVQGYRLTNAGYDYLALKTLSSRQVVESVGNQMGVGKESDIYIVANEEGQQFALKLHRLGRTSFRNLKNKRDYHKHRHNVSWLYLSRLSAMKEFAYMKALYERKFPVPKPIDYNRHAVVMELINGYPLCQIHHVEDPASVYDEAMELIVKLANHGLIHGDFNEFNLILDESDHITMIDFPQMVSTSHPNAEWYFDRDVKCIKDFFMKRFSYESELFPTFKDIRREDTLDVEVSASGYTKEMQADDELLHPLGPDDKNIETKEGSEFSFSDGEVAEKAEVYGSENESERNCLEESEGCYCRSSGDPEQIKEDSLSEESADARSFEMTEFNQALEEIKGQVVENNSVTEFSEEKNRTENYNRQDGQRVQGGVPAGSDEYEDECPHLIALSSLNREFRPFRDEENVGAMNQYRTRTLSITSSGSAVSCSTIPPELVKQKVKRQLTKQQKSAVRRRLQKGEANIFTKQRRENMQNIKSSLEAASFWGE
T4 sequence (P36896 24-505): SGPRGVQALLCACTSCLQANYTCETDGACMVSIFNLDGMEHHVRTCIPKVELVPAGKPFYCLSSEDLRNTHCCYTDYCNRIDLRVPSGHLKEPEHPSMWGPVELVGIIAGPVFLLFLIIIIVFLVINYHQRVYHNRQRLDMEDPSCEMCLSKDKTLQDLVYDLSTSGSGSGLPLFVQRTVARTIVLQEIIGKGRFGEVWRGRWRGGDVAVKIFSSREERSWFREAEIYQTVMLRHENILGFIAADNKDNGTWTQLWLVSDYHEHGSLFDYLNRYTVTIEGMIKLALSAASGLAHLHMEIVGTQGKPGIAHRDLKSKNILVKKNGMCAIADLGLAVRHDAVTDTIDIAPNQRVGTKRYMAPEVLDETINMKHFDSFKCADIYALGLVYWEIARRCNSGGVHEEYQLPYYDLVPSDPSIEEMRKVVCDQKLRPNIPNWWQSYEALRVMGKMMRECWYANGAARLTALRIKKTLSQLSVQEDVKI
T1 sequence (P53350 53-305 limits assumed): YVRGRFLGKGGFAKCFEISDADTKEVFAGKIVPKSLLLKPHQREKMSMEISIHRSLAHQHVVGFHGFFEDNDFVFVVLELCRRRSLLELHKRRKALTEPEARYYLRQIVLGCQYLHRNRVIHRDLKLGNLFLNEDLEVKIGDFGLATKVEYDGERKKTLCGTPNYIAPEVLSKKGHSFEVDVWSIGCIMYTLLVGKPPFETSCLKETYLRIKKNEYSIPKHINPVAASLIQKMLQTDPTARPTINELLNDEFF
T17 sequence (Q15831 whole entry): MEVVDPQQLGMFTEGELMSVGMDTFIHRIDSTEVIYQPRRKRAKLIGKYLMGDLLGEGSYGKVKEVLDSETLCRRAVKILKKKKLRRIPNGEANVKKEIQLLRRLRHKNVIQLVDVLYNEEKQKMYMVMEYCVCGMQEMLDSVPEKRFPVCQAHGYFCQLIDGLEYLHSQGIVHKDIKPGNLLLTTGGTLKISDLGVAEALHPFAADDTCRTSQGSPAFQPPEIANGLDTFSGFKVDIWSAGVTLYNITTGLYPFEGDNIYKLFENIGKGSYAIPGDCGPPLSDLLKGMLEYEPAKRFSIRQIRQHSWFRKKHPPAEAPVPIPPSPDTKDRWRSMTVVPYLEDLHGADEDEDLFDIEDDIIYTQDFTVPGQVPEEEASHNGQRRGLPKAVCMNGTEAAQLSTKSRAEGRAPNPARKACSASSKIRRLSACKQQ
T8 sequence (Q86UX6 whole entry): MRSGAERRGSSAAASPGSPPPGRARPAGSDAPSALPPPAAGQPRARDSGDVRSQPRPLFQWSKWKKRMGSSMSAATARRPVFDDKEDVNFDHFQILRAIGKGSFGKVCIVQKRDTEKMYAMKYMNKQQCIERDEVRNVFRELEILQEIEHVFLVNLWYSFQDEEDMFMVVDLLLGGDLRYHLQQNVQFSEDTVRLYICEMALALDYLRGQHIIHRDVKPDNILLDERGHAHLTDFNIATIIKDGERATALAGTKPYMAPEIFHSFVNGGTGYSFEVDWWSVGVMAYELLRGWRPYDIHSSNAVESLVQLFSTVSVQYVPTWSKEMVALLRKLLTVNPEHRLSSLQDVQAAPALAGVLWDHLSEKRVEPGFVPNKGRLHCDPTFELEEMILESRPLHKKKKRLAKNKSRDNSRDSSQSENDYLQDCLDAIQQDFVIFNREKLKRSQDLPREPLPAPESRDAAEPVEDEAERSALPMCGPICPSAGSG
T7 sequence (P29317 24-976): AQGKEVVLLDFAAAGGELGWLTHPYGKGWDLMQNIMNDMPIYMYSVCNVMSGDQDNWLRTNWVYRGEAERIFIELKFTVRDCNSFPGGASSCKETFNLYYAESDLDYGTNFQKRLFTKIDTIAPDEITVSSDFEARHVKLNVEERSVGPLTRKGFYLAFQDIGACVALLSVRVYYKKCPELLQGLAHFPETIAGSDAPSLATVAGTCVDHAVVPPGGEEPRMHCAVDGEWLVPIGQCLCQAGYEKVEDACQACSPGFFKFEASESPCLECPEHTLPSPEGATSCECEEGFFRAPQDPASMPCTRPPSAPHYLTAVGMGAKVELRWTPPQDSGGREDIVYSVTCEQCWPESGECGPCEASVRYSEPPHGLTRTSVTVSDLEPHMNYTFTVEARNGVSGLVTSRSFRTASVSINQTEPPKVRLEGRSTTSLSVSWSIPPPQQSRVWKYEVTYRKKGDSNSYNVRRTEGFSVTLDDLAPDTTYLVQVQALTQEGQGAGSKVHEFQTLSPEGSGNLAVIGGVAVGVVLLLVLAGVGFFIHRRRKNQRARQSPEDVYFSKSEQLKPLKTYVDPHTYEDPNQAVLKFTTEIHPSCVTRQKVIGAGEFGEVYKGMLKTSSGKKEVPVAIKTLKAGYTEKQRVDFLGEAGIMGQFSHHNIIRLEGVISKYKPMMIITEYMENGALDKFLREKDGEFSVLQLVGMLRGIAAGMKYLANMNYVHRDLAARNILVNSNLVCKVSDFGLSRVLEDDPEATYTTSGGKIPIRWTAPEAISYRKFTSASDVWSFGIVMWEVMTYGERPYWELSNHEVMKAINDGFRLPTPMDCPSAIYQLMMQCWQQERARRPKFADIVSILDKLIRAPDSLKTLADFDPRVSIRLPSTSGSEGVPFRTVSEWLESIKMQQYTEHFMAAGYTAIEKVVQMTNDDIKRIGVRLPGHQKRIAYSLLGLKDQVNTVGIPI
T9 sequence (P48730 whole entry): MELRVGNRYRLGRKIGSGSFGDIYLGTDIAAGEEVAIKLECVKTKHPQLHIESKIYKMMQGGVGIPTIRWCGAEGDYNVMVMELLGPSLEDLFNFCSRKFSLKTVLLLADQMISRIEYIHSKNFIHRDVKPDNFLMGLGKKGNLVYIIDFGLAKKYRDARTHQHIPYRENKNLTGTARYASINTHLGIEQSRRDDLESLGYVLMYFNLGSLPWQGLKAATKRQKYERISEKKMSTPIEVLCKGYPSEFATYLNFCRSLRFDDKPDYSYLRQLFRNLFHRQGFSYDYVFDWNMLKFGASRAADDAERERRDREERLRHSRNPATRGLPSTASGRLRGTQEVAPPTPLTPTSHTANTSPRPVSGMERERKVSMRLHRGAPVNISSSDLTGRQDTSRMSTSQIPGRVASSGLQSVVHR
T10 sequence (Q9BXA7 whole entry): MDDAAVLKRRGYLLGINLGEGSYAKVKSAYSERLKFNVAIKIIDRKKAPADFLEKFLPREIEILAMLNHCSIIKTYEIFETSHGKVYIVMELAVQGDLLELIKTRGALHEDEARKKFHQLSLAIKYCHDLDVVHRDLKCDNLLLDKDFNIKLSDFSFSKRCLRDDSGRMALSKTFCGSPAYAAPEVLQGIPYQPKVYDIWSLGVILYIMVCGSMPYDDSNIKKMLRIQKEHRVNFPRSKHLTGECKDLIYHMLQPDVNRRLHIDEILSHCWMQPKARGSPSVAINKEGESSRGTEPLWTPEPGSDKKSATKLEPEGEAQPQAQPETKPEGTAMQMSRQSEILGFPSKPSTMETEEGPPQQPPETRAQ

As usually defined, the solubility is the dissolved amount per volume that the medium holds. Turning to `CN(C)CCNC(=O)c1ccc(-c2ccc(-c3ccc(Cl)cc3)n2-c2ccccc2C(F)(F)F)cc1` (single isomer, unassigned) [Atropisomer A-2, 4-[5-(4-chlorophenyl)-1-[2-(trifluoromethyl)phenyl]pyrrol-2-yl]-N-[2-(dimethylamino)ethyl]benzamide], the remaining binding at 3 µM in data set [1] turned out to be 97%; in data set [2], 100%. The solubility in [3] was less than 5000 µg/mL. Besides, the percent of control kinase binding to immobilized ligand at 3 µM in data set [4] is 100%; in data set [5] it was 96%; in [6], 84%; in data set [7] it was 80%; in data set [8], 100%; in data set [9] it was 100%. Besides, the percent of control kinase binding to immobilized ligand at 3 µM in [10] came to 91%; in [11], 100%; in [12] it was 100%; in data set [13] it was 99%; in [14] it was 71%; in data set [15] it was 94%. The results for the percent of control kinase binding to immobilized ligand at 3 µM in [16], in [17] and in [18] were 75%, 100% and 81%, respectively. Moreover, the “% Ctrl @ 3 μM” value in data set [19] (EGFR (variants not told apart)) is 100%; in data set [19] (KIT (three lines, variants not told apart)), 100%. Also, the “binding activity against panel kinases (in words)” value in data set [19] (ninety-seven kinases, 3 μM) is on record as “poor or non-existent binding activity”.
